Measured values published in PubChem BioAssay (NCI).
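Interpolation was linear, between the two tested concentrations surrounding the appropriate level; five concentrations were tested over 48 hours in 96-well plates. TGI marks complete inhibition of growth.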

Columns and labels:
Assay in all cases: DTP human tumour cell line panel, 48 h
SW-620 colon = test system: SW-620 colon
MALME-3M melanoma = test system: MALME-3M melanoma
SR leukemia = test system: SR leukemia
MCF7 breast = test system: MCF7 breast
NCI-H23 lung = test system: NCI-H23 lung
NCI-H460 lung = test system: NCI-H460 lung
SNB-19 CNS = test system: SNB-19 CNS
SF-268 CNS = test system: SF-268 CNS
EKVX NSCLC = test system: EKVX NSCLC
CCRF-CEM leukemia = test system: CCRF-CEM leukemia
HCC-2998 colon = test system: HCC-2998 colon
ACHN renal = test system: ACHN renal
RPMI-8226 leukemia = test system: RPMI-8226 leukemia
UO-31 renal = test system: UO-31 renal
MDA-MB-435 = test system: MDA-MB-435
SK-MEL-5 melanoma = test system: SK-MEL-5 melanoma
HOP-62 NSCLC = test system: HOP-62 NSCLC
NCI-H522 lung = test system: NCI-H522 lung
UACC-257 melanoma = test system: UACC-257 melanoma
MOLT-4 leukemia = test system: MOLT-4 leukemia
OVCAR-3 ovarian = test system: OVCAR-3 ovarian
SF-539 CNS = test system: SF-539 CNS
HT29 colon = test system: HT29 colon
SNB-75 CNS = test system: SNB-75 CNS
K-562 leukemia = test system: K-562 leukemia
U251 CNS = test system: U251 CNS
CAKI-1 renal = test system: CAKI-1 renal
HL-60(TB) leukemia = test system: HL-60(TB) leukemia
LOX IMVI melanoma = test system: LOX IMVI melanoma
MDA-N = test system: MDA-N
A498 renal = test system: A498 renal
KM12 colon = test system: KM12 colon
HCT-116 colon = test system: HCT-116 colon
MDA-MB-231 breast = test system: MDA-MB-231 breast
SN12C renal = test system: SN12C renal
SK-MEL-28 melanoma = test system: SK-MEL-28 melanoma
DU-145 prostate = test system: DU-145 prostate
OVCAR-8 ovarian = test system: OVCAR-8 ovarian
IGROV1 ovarian = test system: IGROV1 ovarian
BT-549 breast = test system: BT-549 breast
OVCAR-5 ovarian = test system: OVCAR-5 ovarian
HS 578T breast = test system: HS 578T breast
A549 NSCLC = test system: A549 NSCLC
786-0 renal = test system: 786-0 renal
OVCAR-4 ovarian = test system: OVCAR-4 ovarian
TK-10 renal = test system: TK-10 renal
NCI-H226 lung = test system: NCI-H226 lung
HOP-92 NSCLC = test system: HOP-92 NSCLC
PC-3 prostate = test system: PC-3 prostate
NCI/ADR-RES ovarian = test system: NCI/ADR-RES ovarian
SF-295 CNS = test system: SF-295 CNS
COLO 205 colon = test system: COLO 205 colon
RXF 393 renal = test system: RXF 393 renal
HCT-15 colon = test system: HCT-15 colon

Measured: TGI

CN(C)c1ccc(C2=C([O-])c3cc(-[n+]4ccccc4)ccc3C2=O)cc1
> 100 µM: all assays above
